# Measurements from US20240050406A1, “COMPOSITION COMPRISING OXIRACETAM FOR PREVENTING OR TREATING MUSCULAR DISEASE” (KSB TUGEN INC., priority 2021, published 2024).
# What was measured:
# [1] = test system: dexamethasone-induced muscular atrophy animal model; experiment: Dexamethasone-induced muscular atrophy animal model (Experimental Example 1); type: in vivo, ICR mice; conditions: compared to dexamethasone-treated group (excipient)
# Source text: 1-1. Preparation of experimental animals and samples For an experimental group in the present invention, oxiracetam
# having a structure of Formula 1 was purchased from Tokyo Chemical Industry (Japan; Product No. 00398, CAS RN:62613-82-5, purity: 96%) and used. As experimental animals, 7-week-old male ICR mice were
# purchased and used. Until the day of the experiment, general feed (EEGJ30060: Cargill Agri Purina, Seongnam, Korea) and water were sufficiently supplied to the experimental animals, and the animals were acclimated for 1 week under an environment of a temperature of 23±2° C., a humidity of 55±10%, and a light-dark cycle of 12 hours-12 hours and used in the experiment.
# After the acclimation period for the experimental animals, to create a muscular atrophy model, the mice were randomly divided into groups of 10 animals, such as a normal group (n=10), a dexamethasone-treated group (n=10), and an oxiracetam-administered group (n=10). The groups except for the normal group were intraperitoneally injected with dexamethasone at a dose of 10 mg/kg from day 7 to day 21 for 14 days. In the case of the oxiracetam-administered group, 7 days before the intraperitoneal administration of dexamethasone, oxiracetam was orally administered using a Zonde needle at a dose of 30 mg/kg/day once a day for 21 days. During the same period, the normal group was administered no drug, and 100 μL of normal saline was orally administered at a time.
# The lean body mass for the gastrocnemius muscle (GS) and tibialis anterior (TA) for each group was measured every 7 days. Specifically, animal models of each group were anesthetized using 3% isoflurane, fixed to a photographing bed, and then photographed. The respiration rates and temperatures of the animal models during photographing were measured using an animal monitoring system (SA Instruments, USA).
# The whole body of the animal model was photographed through dual energy X-ray absorptiometry (DEXA) using iNSiGHT VET DXA (Osteosys, KR), and the lean body mass of each of the gastrocnemius muscle (GS) and the tibialis anterior (TA) was measured and calculated from the two-dimensional images of the gastrocnemius muscle (GS) and the tibialis anterior (TA) by a program using the region of interest (ROI).
# To measure grip strength, a grip strength test was performed. […] The grip strength was measured once every 2 days and 11 times for each mouse.
# Tibialis anterior diameters (T1) were measured from two-dimensional images captured by dual-energy X-ray absorptiometry (DEXA) for each group and compared.
# First, the experimental animals in each group were acclimatized to a treadmill machine twice before measurement (1st round: inclination 10°, 10 minutes at 5 m/min and 10 minutes at 10 m/min; 2n d round: inclination 10°, 5 minutes at 5 m/min and 15 minutes at 10 m/min). On the day of the experiment, the experimental animals were allowed to run for 20 minutes at an initial speed of 10 m/min at an inclination of 10°, and then the speed was increased by 2 m/min every 2 minutes, and then the running distance and time were measured with the end point when the experimental animal stayed for 10 seconds without running.
# (§1) Statistical processing was performed using GraphPad Prism (GraphPad Software Inc., San Diego, CA, USA). The results of each repeated experiment were expressed as mean±standard error of mean, and analyzed using the analysis of variance (Tukey's test), and statistical significance was acknowledged when the P-value was 0.05 or less.
# C2C12 myotubes = experiment: Myotube diameter in doxorubicin-induced cachexia cell model (Experimental Example 8); type: cell-based, mouse; conditions: doxorubicin 500 nM 48 h with or without oxiracetam 0.01, 0.1, 1, 10 and 30 μM; relative to control
# Method: A mouse-derived C2C12 cell line was provided from the American Type Culture Collection (ATCC, CRL-1772; Manassas, VA, USA) and cultured at 37° C. in 5% CO2. In the proliferation phase of the cells before differentiation, high concentration glucose Dulbecco's modified Eagle's medium (DMEM) containing 1% penicillin/streptomycin and 10% fetal bovine serum (FBS) medium were used, and in the differentiation induction, the FBS medium was replaced with a 2% horse serum (HS)-containing medium. The C2C12 myoblasts were seeded into a 96 well culture plate and a 6 well culture plate at 2×10^5/well and 5×10^3/well, respectively, and cultured at 37° C. in a CO2 incubator. […]
# Two days after anticancer agent and oxiracetam treatment, the anticancer agent-treated group (Doxorubicin), the oxiracetam-treated groups (Oxiracetam 0.01 μM, 0.1 μM, 1 μM, 10 μM and 30 μM), and the control (control) were photographed using an optical microscope at a room temperature, and the diameter (Diameter, %) of a myotube in each group was measured and compared.
# as §1
# [2] = oxiracetam 30 mg/kg/day oral 21 days + dexamethasone, DEXA
compound,measurement,setting,value
"NC(=O)CN1CC(O)CC1=O (racemic) [oxiracetam, (RS)-2-(4-hydroxy-2-oxopyrrolidin-1-yl)acetamide]",tibialis anterior (TA) diameter (T1),"[1]; oxiracetam 30 mg/kg/day oral 21 days + dexamethasone 10 mg/kg i.p. day 7-21, DEXA",significantly increased
same,lean body mass of the gastrocnemius muscle (GS),[1]; [2],the decrease was significantly suppressed
same,lean body mass of the tibialis anterior (TA),[1]; [2],the decrease was significantly suppressed
same,grip strength,[1]; oxiracetam 30 mg/kg/day oral 21 days + dexamethasone,significantly increased
same,exercise stress test (treadmill): athletic ability,[1]; oxiracetam 30 mg/kg/day oral + dexamethasone,significant improvement
same,diameter of myotube,C2C12 myotubes,significantly recovered and greatly increased to the control (normal group) level
